Laboratory results taken from patent publication US9073892B2, “Indazolyl triazol derivatives” (Merck Serono S.A., priority 2010, dated 2015).
Counter-ions that a name gives are not always drawn.

Assays:
[1] = tested on: T1, IRAK1/4 human; assay: IRAK1/4 phosphorylation IC50 (enzymatic assay, table 2); format: biochemical; conditions: human IRAK1/4 phosphorylation
T1 construct: fused on or other part: His tag and TEV cleavage site at the N-terminus
Method in brief: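 Human IRAK-1 or IRAK-4, each carrying a His-TEV tag, was incubated with ATP and compounds in DMSO ranging from 20 µM to 1 nM in 384-well plates, and IRAK-4 reactions also contained STK1-biotin peptide. Reactions ran in 50 mM Hepes pH7.0 with MgCl2, DTT, EGTA and BSA for 2 or 3 hours, with 2% DMSO controls. Inhibition is given as IC50.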

[2] = tested on: IL1β-induced IL8 release in THP1 cells; assay: IRAK IL8 secretion functional assay; format: cell-based; conditions: Homo sapiens; THP-1 cells, IL1β 100 ng/ml overnight, IL8 by HTRF; read-out: IC50, Secretion THP-1/IL-β induced IL8 release
Text: IRAK IL8 Secretion Functional Assay:
THP1 cells are human monocytes derived from acute monocytic leukemia. IL1β receptor expressed on the surface membrane of THP1 cells induced IL8 release. IRAKs are kinase signaling downstream of TLRs and TNF, IL-18, IL-33 and IL-1 receptors.
In cells, IRAK4 is upstream of IRAK1.
The Human IL8 Kit, provided by CysBio International based in Bagnols/Cèze FR, allows for the quantitative determination of IL-8 in cell-culture supernatants.
Anti-cytokine IL8 antibodies are respectively labeled with europium Cryptate and XL665. Upon their binding to IL-8 molecules, the two antibodies come into close proximity, allowing FRET (Fluorescence Resonance Energy Transfer) to occur. This FRET increases proportionally to IL-8 concentrations and be converted in IL8 pg amounts.
THP-1 cells are seeded on Day 1 in 384 well plate with RPMI 1640 at a density of 30 000 cells/well. Compounds 4×/2% DMSO (range of concentrations from 20 μM to 1 nM) and IL1β 4× at 100 ng/ml final are added to cells overnight at 37° C., 5% CO2. Measurement of IL-8 secretion is done by mixing on Day2 10 μl of supernatant with 10 μl of a mix solution of europium Cryptate and XL665 (v:v) as described by supplier.
HTRF (homogeneous time resolved fluorescence) signal is measured after 3 hours incubation time at 30° C. with a BMG Pherastar reader or equivalent.

Row | IC50 [1] | IC50 [2] | SMILES
1 | 100 to 1000 nM | 100 to 1000 nM | O=C(NCCCN1CCCC1)c1ccc(-n2cc(-c3n[nH]c4ccccc34)nn2)cc1 [Example 40, 4-[4-(1H-indazol-3-yl)-1H-1,2,3-triazol-1-yl]-N-(3-pyrrolidin-1-ylpropyl)benzamide]
2 | 100 to 1000 nM | 100 to 1000 nM | O=C(Nc1cnn(CCN2CCOCC2)c1)c1ccc(-n2cc(-c3n[nH]c4ccccc34)nn2)cc1 [Example 111, 4-[4-(1H-indazol-3-yl)-1H-1,2,3-triazol-1-yl]-N-[1-(2-morpholin-4-ylethyl)-1H-pyrazol-4-yl]benzamide]
3 | 100 to 1000 nM | 100 to 1000 nM | CNC(=O)c1ccc(-n2cc(-c3n[nH]c4ccccc34)nn2)cc1 [Example 54, 4-[4-(1H-indazol-3-yl)-1H-1,2,3-triazol-1-yl]-N-methylbenzamide]
4 | 100 to 1000 nM | 100 to 1000 nM | O=C(NCC1CC1)c1ccc(-n2cc(-c3n[nH]c4ccccc34)nn2)cc1 [Example 55]
5 | < 100 nM | 100 to 1000 nM | O=C(c1ccc(-n2cc(-c3n[nH]c4ccc(C5CCN(CCF)CC5)cc34)nn2)cc1)N1CCOCC1 [Example 121, 5-[1-(2-fluoroethyl)piperidin-4-yl]-3-{1-[4-(morpholin-4-ylcarbonyl)phenyl]-1H-1,2,3-triazol-4-yl}-1H-indazole]
6 | 100 to 1000 nM | 1000 to 5000 nM | O=C(c1ccc(-n2cc(-c3n[nH]c4ccc(CO)cc34)nn2)cc1)N1CCOCC1 [Example 93, (3-{1-[4(morpholin-4-ylcarbonyl)phenyl]-1H-1,2,3-triazol-4-yl}-1H-indazol-5-yl)methanol]
7 | 1000 to 5000 nM | 1000 to 5000 nM | O=C(Cc1cccc(-n2cc(-c3n[nH]c4ccccc34)nn2)c1)N1CCCC1 [Example 82, 3-{1-[3-(2-oxo-2-pyrrolidin-1-ylethyl)phenyl]-1H-1,2,3-triazol-4-yl}-1H-indazole]
8 | < 100 nM | 100 to 1000 nM | O=C(c1ccc(-n2cc(-c3n[nH]c4ccccc34)nn2)cc1)N1CCCC(Cn2ccnc2)C1 (centres unmarked) [Example 126, 3-[1-(4-{[3-(1H-imidazol-1-ylmethyl)piperidin-1-yl]carbonyl}phenyl)-1H-1,2,3-triazol-4-yl]-1H-indazole]
9 | < 100 nM | 100 to 1000 nM | CN1CCC(n2cc(NC(=O)c3ccc(-n4cc(-c5n[nH]c6ccccc56)nn4)cc3)cn2)C1 (centres unmarked) [Example 112, 4-[4-(1H-indazol-3-yl)-1H-1,2,3-triazol-1-yl]-N-[1-(1-methylpyrrolidin-3-yl)-1H-pyrazol-4-yl]benzamide]
10 | 100 to 1000 nM | 1000 to 5000 nM | O=C(Nc1cnn(C2CCNCC2)c1)c1ccc(-n2cc(-c3n[nH]c4ccccc34)nn2)cc1 [Example 128, 4-[4-(1H-indazol-3-yl)-1H-1,2,3-triazol-1-yl]-N-(1-piperidin-4-yl-1H-pyrazol-4-yl)benzamide hydrochloride]
11 | < 100 nM | 100 to 1000 nM | CN1CCC(n2cc(NC(=O)c3ccc(-n4cc(-c5n[nH]c6ccccc56)nn4)cc3)cn2)CC1 [Example 98, 4-[4-(1H-indazol-3-yl)-1H-1,2,3-triazol-1-yl]-N-[1-(1-methylpiperidin-4-yl)-1H-pyrazol-4-yl]benzamide]
12 | < 100 nM | 100 to 1000 nM | O=C(c1ccc(-n2cc(-c3n[nH]c4ccc(Cn5nc(-c6ccncc6)ccc5=O)cc34)nn2)cc1)N1CCOCC1 [Example 103, 2-[(3-{1-[4-(morpholin-4-ylcarbonyl)phenyl]-1H-1,2,3-triazol-4-yl}-1H-indazol-5-yl)methyl]-6-pyridin-4-ylpyridazin-3(2H)-one]
13 | 100 to 1000 nM | 100 to 1000 nM | CCN1CCC[C@@H]1CNC(=O)c1ccc(-n2cc(-c3n[nH]c4ccc(C)cc34)nn2)cc1 [Example 3, N-{[(2R)-1-ethylpyrrolidin-2-yl]methyl}-4-[4-(5-methyl-1H-indazol-3-yl)-1H-1,2,3-triazol-1-yl]benzamide]
14 | 100 to 1000 nM | 100 to 1000 nM | O=C(c1ccc(-n2cc(-c3n[nH]c4ccccc34)nn2)cc1)N1CCC(O)C1 (centres unmarked) [Example 26, 1-{4-[4-(1H-indazol-3-yl)-1H-1,2,3-triazol-1-yl]benzoyl}pyrrolidin-3-ol]
15 | 100 to 1000 nM | 100 to 1000 nM | O=C(c1ccc(-n2cc(-c3n[nH]c4ccccc34)nn2)cc1)N1CCCCC1CO (centres unmarked) [Example 100, (1-{4-[4-(1H-indazol-3-yl)-1H-1,2,3-triazol-1-yl]benzoyl}piperidin-2-yl)methanol]
16 | 1000 to 5000 nM | 1000 to 5000 nM | c1cc(CCCN2CCOCC2)cc(-n2cc(-c3n[nH]c4ccccc34)nn2)c1 [Example 86, 3-{1-[3-(3-morpholin-4-ylpropyl)phenyl]-1H-1,2,3-triazol-4-yl}-1H-indazole]

Row | IC50 [1] | IC50 [2] | SMILES
17 | 1000 to 5000 nM | 1000 to 5000 nM | CCN1CCN(C(=O)c2cccc(-n3cc(-c4n[nH]c5ccccc45)nn3)c2)CC1 [Example 60, 3-(1-{3-[(4-ethylpiperazin-1-yl)carbonyl]phenyl}-1H-1,2,3-triazol-4-yl)-1H-indazole]
18 | 100 to 1000 nM | 100 to 1000 nM | O=C(c1ccc(-n2cc(-c3n[nH]c4ccccc34)nn2)cc1)N1CCC[C@H]1CO [Example 99]
19 | 100 to 1000 nM | 100 to 1000 nM | CN(C)CC1CCN(C(=O)c2ccc(-n3cc(-c4n[nH]c5ccccc45)nn3)cc2)CC1 [Example 91, 1-(1-{4-[4(1H-indazol-3-yl)-1H-1,2,3-triazol-1-yl]benzoyl}piperidin-4-yl)-N,N-dimethylmethanamine]
20 | 100 to 1000 nM | 100 to 1000 nM | CN1CCCC(CNC(=O)c2ccc(-n3cc(-c4n[nH]c5ccccc45)nn3)cc2)C1 (centres unmarked) [Example 77, 4-[4-(1H-indazol-3-yl)-1H-1,2,3-triazol-1-yl]-N-[(1-methylpiperidin-3-yl)methyl]benzamide]
21 | 100 to 1000 nM | 100 to 1000 nM | O=C(NC1CC1)c1ccc(-n2cc(-c3n[nH]c4ccccc34)nn2)cc1 [Example 53, N-cyclopropyl-4-[4-(1H-indazol-3-yl)-1H-1,2,3-triazol-1-yl]benzamide]
22 | 1000 to 5000 nM | 1000 to 5000 nM | c1cc(CCN2CCOCC2)cc(-n2cc(-c3n[nH]c4ccccc34)nn2)c1 [Example 80, 3-{1-[3-(2-morpholin-4-ylethyl)phenyl]-1H-1,2,3-triazol-4-yl}-1H-indazole]
23 | 100 to 1000 nM | 1000 to 5000 nM | O=C(c1ccc(-n2cc(-c3n[nH]c4ccc(C5=CCN(Cc6ccccc6)CC5)cc34)nn2)cc1)N1CCOCC1 [Example 106, 5-(1-benzyl-1,2,3,6-tetrahydropyridin-4-yl)-3-{1-[4-(morpholin-4-ylcarbonyl)phenyl]-1H-1,2,3-triazol-4-yl}-1H-indazole]
24 | 100 to 1000 nM | 100 to 1000 nM | CC(=O)N1CCN(C(=O)c2ccc(-n3cc(-c4n[nH]c5ccccc45)nn3)cc2)CC1 [Example 39, 3-(1-{4-[(4-acetylpiperazin-1-yl)carbonyl]phenyl}-1H-1,2,3-triazol-4-yl)-1H-indazole]
25 | 100 to 1000 nM | 100 to 1000 nM | CCNC(=O)c1ccc(-n2cc(-c3n[nH]c4ccccc34)nn2)cc1 [Example 49, N-ethyl-4-[4-(1H-indazol-3-yl)-1H-1,2,3-triazol-1-yl]benzamide]
26 | 100 to 1000 nM | 100 to 1000 nM | CN(C)CC1CCCN(C(=O)c2ccc(-n3cc(-c4n[nH]c5ccccc45)nn3)cc2)C1 (centres unmarked) [Example 29, 1-(1-{4-[4-(1H-indazol-3-yl)-1H-1,2,3-triazol-1-yl]benzoyl}piperidin-3-yl)-N,N-dimethylmethanamine]
27 | 1000 to 5000 nM | 100 to 1000 nM | O=C(NCc1ccc(-n2cc(-c3n[nH]c4ccccc34)nn2)cc1)c1ccncc1 [Example 15, N-{4-[4(1H-indazol-3-yl]-1H-1,2,3-triazol-1-yl)benzyl}isonicotinamide]
28 | 100 to 1000 nM | 100 to 1000 nM | CCN1CCN(C(=O)c2ccc(-n3cc(-c4n[nH]c5ccccc45)nn3)cc2)CC1 [Example 52, 3-(1-{4-[(4-ethylpiperazin-1-yl)carbonyl]phenyl)-1H-1,2,3-triazol-4-yl)-1H-indazole]
29 | < 100 nM | 100 to 1000 nM | CN1CC=C(c2ccc3[nH]nc(-c4cn(-c5ccc(C(=O)N6CCOCC6)cc5)nn4)c3c2)CC1 [Example 104, 5-(1-methyl-1,2,3,6-tetrahydropyridin-4-yl)-3-{1-[4-(morpholin-4-ylcarbonyl)phenyl]-1H-1,2,3-triazol-4-yl}-1H-indazole]
30 | 100 to 1000 nM | 1000 to 5000 nM | CC(=O)N1CCC(c2ccc3[nH]nc(-c4cn(-c5ccc(C(=O)N6CCOCC6)cc5)nn4)c3c2)CC1 [Example 105, 5-(1-acetylpiperidin-4-yl)-3-{1-[4-(morpholin-4-ylcarbonyl)phenyl]-1H-1,2,3-triazol-4-yl}-1H-indazole]
31 | 100 to 1000 nM | 100 to 1000 nM | Cc1ccc2[nH]nc(-c3cn(-c4ccc(CN5CCNCC5)cc4)nn3)c2c1 [Example 11, 5-methyl-3-{1-[4-(piperazin-1-ylmethyl)phenyl]-1H-1,2,3-triazol-4-yl}-1H-indazole]
